# Marks after values point to notes of the source that are not given here.
# Experiments:
# Assay type in all cases: in vivo
# Phakopsora pachyrhizi = assay: Test A: test suspension sprayed on soybean seedlings, inoculated next day with Phakopsora pachyrhizi (Asian soybean rust), visual disease rating; conditions: for Test A rating (% disease control): relative to the controls
# Outline: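 Compounds first dissolved in acetone (3% of final volume), then suspended in acetone/water 50/50 with 250 ppm PEG400 and sprayed to run-off on soybean seedlings at the stated ppm rate. Inoculated next day with P. pachyrhizi spores; 24 h saturated atmosphere at 22 °C, then 8 days in growth chamber at 22 °C before visual disease rating.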
# [1] = system: Puccinia recondita f. sp. tritici; assay: Test C: test suspension sprayed on wheat seedlings, inoculated next day with Puccinia recondita f. sp. tritici (wheat leaf rust), visual disease rating; conditions: for Test C rating (% disease control): relative to the controls
# Outline: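 Wheat seedlings received a run-off spray of test suspension (ppm rate as listed; acetone/water 50/50, 250 ppm PEG400 surfactant). Leaf rust spore inoculation followed one day later, then 24 h at 20° C in saturated air and 6 days at 20° C before disease was scored visually.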
# Zymoseptoria tritici = assay: Test B: test suspension sprayed on wheat seedlings, inoculated next day with Zymoseptoria tritici (wheat leaf blotch), visual disease rating; conditions: for Test B rating (% disease control): relative to the controls
# Text: General protocol for preparing test suspensions for Tests A-C: the test compounds were first dissolved in acetone in an amount equal to 3% of the final volume and then suspended at the desired concentration (in ppm) in acetone and purified water (50/50 mix by volume) containing 250 ppm of the surfactant PEG400 (polyhydric alcohol esters). The resulting test suspensions were then used in Tests A-C.
# The test suspension was sprayed to the point of run-off on wheat seedlings. The following day the seedlings were inoculated with a spore suspension of Zymoseptoria tritici (the causal agent of wheat leaf blotch) and incubated in a saturated atmosphere at 24° C., for 48 h, and then moved to a growth chamber at 20° C., for 17 days, after which time visual disease ratings were made.
# Results for Tests A-C are given in Table A. In the Table, a rating of 100 indicates 100% disease control and a rating of 0 indicates no disease control (relative to the controls). A dash (-) indicates the compound was not tested. The test suspensions were sprayed at the concentration listed in the column “Rate in ppm”, unless otherwise indicated. An asterisk “*” next to the rating indicates a 250 ppm test suspension was used, a double asterisk “**” next to the rating indicates a 100 ppm test suspension was used, and a triple asterisk “***” next to the rating indicates a 50 ppm test suspension was used.
# [2] = 100 ppm test suspension (double asterisk **)
Molecule,Test A rating (% disease control) (Phakopsora pachyrhizi; Rate 10 ppm test suspension),Test C rating (% disease control) ([1]; Rate 10 ppm test suspension),Test B rating (% disease control) (Zymoseptoria tritici; 250 ppm test suspension),also measured
"4,5-dihydro-N,N-dimethyl-2-[[4-[5-(trifluoromethyl)-1,2,4-oxadiazol-3-yl]phenyl]methyl]-4-oxazolecarboxamide [Compound 178]",–,–,–,Test A disease control rating (Phakopsora pachyrhizi; 260 ppm test suspension): 100%; Test C disease control rating ([1]; 260 ppm test suspension): 100%; Test B disease control rating (Zymoseptoria tritici; 260 ppm test suspension): 93%
O=C(NCC=C(Cl)Cl)c1coc(Cc2ccc(-c3noc(C(F)(F)F)n3)cc2)n1 [compound 399],100%,99%,10* %,–
OC(c1ccc(F)cc1)c1ccc(-c2noc(C(F)(F)F)n2)cc1 (racemic) [compound 500],–,–,5* %,Test A rating (% disease control) (Phakopsora pachyrhizi; Rate 250 ppm test suspension): 100%; Test C rating (% disease control) ([1]; Rate 250 ppm test suspension): 100%
O=C(NCC(F)(F)F)c1csc(Cc2ccc(-c3noc(C(F)(F)F)n3)cc2)n1 [compound 463],100%,100%,65* %,–
CCOC(=O)c1cnn(CN2CCC(c3noc(C(F)(F)F)n3)CC2)c1 [compound 458],–,–,0* %,Test A rating (% disease control) (Phakopsora pachyrhizi; Rate 50 ppm test suspension): 0%; Test C rating (% disease control) ([1]; Rate 50 ppm test suspension): 0%
O=C(c1csc(Cc2ccc(-c3noc(C(F)(F)F)n3)cc2)n1)N1CCOCC1 [compound 487],100%,100%,–,Test B rating (% disease control) (Zymoseptoria tritici; 100 ppm test suspension (double asterisk)): 98** %
COCCNC(=O)c1coc(COc2ccc(-c3noc(C(F)(F)F)n3)cc2)n1 [compound 464],79%,23%,94* %,–
N#CCNC(=O)c1csc(COc2ccc(-c3noc(C(F)(F)F)n3)cc2)n1 [compound 473],94%,89%,28* %,–
"4,5-dihydro-2-[[4-[5-(trifluoromethyl)-1,2,4-oxadiazol-3-yl]phenyl]methyl]-4-oxazolecarboxamide [Compound 75]",–,–,–,Test A disease control rating (Phakopsora pachyrhizi; 250 ppm test suspension): 100%; Test C disease control rating ([1]; 250 ppm test suspension): 100%; Test B disease control rating (Zymoseptoria tritici; 250 ppm test suspension): 98%
CCOC(=O)c1cccc(Cc2ccc(-c3noc(C(F)(F)F)n3)cc2)c1 [Compound 454],100%,0%,47* %,–
COCC(COC)NC(=O)c1csc(Cc2ccc(-c3noc(C(F)(F)F)n3)cc2)n1 [compound 489],100%,99%,92* %,–
CN(C)C(=O)C1=NOC(CN2CCC(c3noc(C(F)(F)F)n3)CC2)C1 (stereo not drawn) [compound 426],–,–,9* %,Test A rating (% disease control) (Phakopsora pachyrhizi; Rate 250 ppm test suspension): 0%; Test C rating (% disease control) ([1]; Rate 250 ppm test suspension): 0%
O=C(NC1CCC(F)(F)CC1)c1coc(Cc2ccc(-c3noc(C(F)(F)F)n3)cc2)n1 [compound 395],95%,97%,0* %,–
O=C(NCCn1cccn1)c1coc(Cc2ccc(-c3noc(C(F)(F)F)n3)cc2)n1 [compound 264],–,–,–,Test A disease control rating (Phakopsora pachyrhizi; 10 ppm test suspension): 100%; Test C disease control rating ([1]; 10 ppm test suspension): 99%; Test B disease control rating (Zymoseptoria tritici; 250 ppm test suspension): 99* %
CCCOC(=O)c1cnn(Cc2ccc(-c3noc(C(F)(F)F)n3)s2)c1 [compound 198],–,–,–,Test A disease control rating (Phakopsora pachyrhizi; 10 ppm test suspension): 100%; Test C disease control rating ([1]; 10 ppm test suspension): 99%; Test B disease control rating (Zymoseptoria tritici; [2]): 94** %
COC(=O)c1coc(Cc2ccc(-c3noc(C(F)(F)F)n3)cc2)n1 [Compound 490],100%,74%,94* %,–
CCOC(=O)c1cnn(C(C)c2ccc(-c3noc(C(F)(F)F)n3)s2)c1 (racemic) [Compound 192],–,–,–,Test A disease control rating (Phakopsora pachyrhizi; 10 ppm test suspension): 100%; Test C disease control rating ([1]; 10 ppm test suspension): 100%; Test B disease control rating (Zymoseptoria tritici; 250 ppm test suspension): 99* %

Molecule,Test A rating (% disease control) (Phakopsora pachyrhizi; Rate 10 ppm test suspension),Test C rating (% disease control) ([1]; Rate 10 ppm test suspension),Test B rating (% disease control) (Zymoseptoria tritici; 250 ppm test suspension),also measured
CC1(C)OCC(COC(=O)c2cnn(Cc3ccc(-c4noc(C(F)(F)F)n4)cc3)c2)O1 (stereo not drawn) [compound 496],100%,0%,48* %,–
COCCNC(=O)c1csc(Cc2ccc(-c3noc(C(F)(F)F)n3)cc2)n1 [compound 394],100%,100%,99* %,–
CCOC(=O)c1cnn(CCN2CCC(c3noc(C(F)(F)F)n3)CC2)c1 [compound 459],–,–,0* %,Test A rating (% disease control) (Phakopsora pachyrhizi; Rate 50 ppm test suspension): 0%; Test C rating (% disease control) ([1]; Rate 50 ppm test suspension): 0%
N#CCNC(=O)c1csc(Cc2ccc(-c3noc(C(F)(F)F)n3)cc2)n1 [compound 393],100%,100%,94* %,–
COCCNC(=O)c1csc(COc2ccc(-c3noc(C(F)(F)F)n3)cc2)n1 [compound 469],96%,86%,65* %,–
O=C(NCC(F)(F)F)c1coc(COc2ccc(-c3noc(C(F)(F)F)n3)cc2)n1 [compound 465],100%,80%,0* %,–
O=C(c1coc(Cc2ccc(-c3noc(C(F)(F)F)n3)cc2)n1)N1CCC(F)(F)C1 [compound 402],100%,90%,96* %,–
"2-[[4-[5-(trifluoromethyl)-1,2,4-oxadiazol-3-yl]phenyl]methyl]-1H-isoindole-1,3(2H)-dione [Compound 90]",–,–,–,Test A disease control rating (Phakopsora pachyrhizi; 260 ppm test suspension): 100%; Test C disease control rating ([1]; 260 ppm test suspension): 100%; Test B disease control rating (Zymoseptoria tritici; 260 ppm test suspension): 100%
CCNC(=O)c1csc(Cc2ccc(-c3noc(C(F)(F)F)n3)cc2)n1 [compound 488],100%,100%,99* %,–
OC(c1ccc(-c2noc(C(F)(F)F)n2)cc1)c1cccc(F)c1 (racemic) [compound 498],100%,0%,43* %,–
O=C(NCCn1cccn1)c1csc(Cc2ccc(-c3noc(C(F)(F)F)n3)cc2)n1 [compound 396],100%,100%,28* %,–
"methyl 2-[[4-[5-(trifluoromethyl)-1,2,4-oxadiazol-3-yl]-phenoxy]methyl]oxazole-4-carboxylate [Compound 403]",–,–,–,Test A disease control rating (Phakopsora pachyrhizi; 250 ppm test suspension): 100%; Test C disease control rating ([1]; 250 ppm test suspension): 100%; Test B disease control rating (Zymoseptoria tritici; 250 ppm test suspension): 93%
CCOC(=O)c1cnn(COc2ccc(-c3noc(C(F)(F)F)n3)cc2)c1 [compound 376],–,–,–,Test A disease control rating (Phakopsora pachyrhizi; 10 ppm test suspension): 100%; Test C disease control rating ([1]; 10 ppm test suspension): 68%; Test B disease control rating (Zymoseptoria tritici; 250 ppm test suspension): 49* %
O=C(NCCC(F)(F)F)c1coc(Cc2ccc(-c3noc(C(F)(F)F)n3)cc2)n1 [compound 330],–,–,–,Test A disease control rating (Phakopsora pachyrhizi; 10 ppm test suspension): 100%; Test C disease control rating ([1]; 10 ppm test suspension): 100%; Test B disease control rating (Zymoseptoria tritici; 250 ppm test suspension): 96* %
COC(=O)c1cnn(Cc2ccc(-c3noc(C(F)(F)F)n3)cc2)c1 [compound 21],–,–,–,Test A disease control rating (Phakopsora pachyrhizi; 10 ppm test suspension): 100%; Test C disease control rating ([1]; 10 ppm test suspension): 100%; Test B disease control rating (Zymoseptoria tritici; [2]): 97** %
"methyl 4,5-dihydro-2-[[4-[5-(trifluoromethyl)-1,2,4-oxadiazol-3-yl]phenyl]methyl]-4-oxazolecarboxylate [Compound 74]",–,–,–,Test A disease control rating (Phakopsora pachyrhizi; 250 ppm test suspension): 100%; Test C disease control rating ([1]; 250 ppm test suspension): 96%; Test B disease control rating (Zymoseptoria tritici; 250 ppm test suspension): 0%
"1-[[4-[5-(trifluoromethyl)-1,2,4-oxadiazol-3-yl]phenyl]methyl]-2(1H)-quinoxalinone [Compound 158]",–,–,–,Test A disease control rating (Phakopsora pachyrhizi; 250 ppm test suspension): 100%; Test C disease control rating ([1]; 250 ppm test suspension): 100%; Test B disease control rating (Zymoseptoria tritici; 250 ppm test suspension): 0%

# Source: patent US12606548B2, “Fungicidal oxadiazoles” (FMC CORPORATION, priority 2019, dated 2026)
